Source: ChEMBL document CHEMBL1201862, “PubChem BioAssay data set” (2004)
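Cells were grown in 96-well plates and exposed to each compound for 48 hours at five concentrations; endpoints were interpolated linearly between bracketing concentrations, or set to the highest concentration if not reached. At the GI50, growth is halved.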 Active and inactive are the calls of the source. No stated cut-off is given here; in the data, active = GI50 up to about 1.1 µM and inactive = higher.

Columns and labels:
Test in all cases: NCI anticancer screen, dose series, 48 h
[1] = system: SF-295
[2] = system: U-251
[3] = system: UACC-62
[4] = system: OVCAR-8
[5] = system: MOLT-4
[6] = system: RPMI-8226
[7] = system: OVCAR-4
[8] = system: SR
[9] = system: MCF7
[10] = system: UACC-257
[11] = system: BT-549
[12] = system: Hs-578T
[13] = system: NCI/ADR-RES
[14] = system: IGROV-1
[15] = system: SK-MEL-2
[16] = system: PC-3
[17] = system: SK-OV-3
[18] = system: A549
[19] = system: MDA-N
[20] = system: EKVX

Row | SMILES | GI50 [1] | GI50 [2] | GI50 [3] | GI50 [4] | GI50 [5] | GI50 [6] | GI50 [7] | GI50 [8] | GI50 [9] | GI50 [10] | GI50 [11] | GI50 [12] | GI50 [13] | GI50 [14] | GI50 [15] | GI50 [16] | GI50 [17] | GI50 [18] | GI50 [19] | GI50 [20]
1 | CCOC(=O)[C@H](CO)NC1=C(Cl)C(=O)c2c(O)ccc(O)c2C1=O | > 10 µM (inactive) | > 10 µM (inactive) | > 10 µM (inactive) | > 10 µM (inactive) | > 10 µM (inactive) | > 10 µM (inactive) | > 10 µM (inactive) | 5.22 µM (inactive) | 3.21 µM (inactive) | > 10 µM (inactive) | > 10 µM (inactive) | > 10 µM (inactive) | > 10 µM (inactive) | > 10 µM (inactive) | > 10 µM (inactive) | > 10 µM (inactive) | > 10 µM (inactive) | > 10 µM (inactive) | > 10 µM (inactive) | > 10 µM (inactive)
2 | CC[N+](C)(CC)Cc1ccccc1[N+](=O)[O-] | > 100 µM (inactive) | 53.7 µM (inactive) | > 100 µM (inactive) | 39.8 µM (inactive) | > 100 µM (inactive) | > 100 µM (inactive) | > 100 µM (inactive) | > 100 µM (inactive) | > 100 µM (inactive) | > 100 µM (inactive) | 36 µM (inactive) | > 100 µM (inactive) | > 100 µM (inactive) | > 100 µM (inactive) | > 100 µM (inactive) | 44.8 µM (inactive) | > 100 µM (inactive) | > 100 µM (inactive) | > 100 µM (inactive) | 32.3 µM (inactive)
3 | CC1OC(OC2C(O[C@H]3CC[C@@]4(C)C(=CC[C@H]5[C@@H]6C[C@@H]7O[C@]8(CC[C@@H](C)CO8)[C@@H](C)[C@@H]7[C@@]6(C)CC[C@@H]54)C3)OC(CO)C(O)C2O)C(O)C(O)C1O (stereo not given in full) | 1.15 µM (inactive) | 0.544 µM (active) | 1.4 µM (inactive) | 1.45 µM (inactive) | 2.64 µM (inactive) | 0.698 µM (active) | 1.22 µM (inactive) | 2.77 µM (inactive) | 1.82 µM (inactive) | 1.8 µM (inactive) | 4.49 µM (inactive) | 1.86 µM (inactive) | 1.99 µM (inactive) | 2.8 µM (inactive) | 2.63 µM (inactive) | 0.581 µM (active) | 3.05 µM (inactive) | 0.647 µM (active) | 3.29 µM (inactive) | 3.1 µM (inactive)
4 | O=C1C=CC(=O)c2c1ccc1c3ccccc3n(CCCCCCCCCCCCn3c4ccccc4c4ccc5c(c43)C(=O)C=CC5=O)c21 | > 100 µM (inactive) | > 88.7 µM (inactive) | > 100 µM (inactive) | > 100 µM (inactive) | 49.9 µM (inactive) | > 100 µM (inactive) | > 100 µM (inactive) | 50.5 µM (inactive) | > 100 µM (inactive) | > 100 µM (inactive) | > 100 µM (inactive) | > 100 µM (inactive) | > 100 µM (inactive) | > 100 µM (inactive) | > 100 µM (inactive) | > 100 µM (inactive) | > 100 µM (inactive) | > 100 µM (inactive) | > 100 µM (inactive) | > 100 µM (inactive)
5 | CCCCC1Cc2cc(O)ccc2-c2n1c1cc(O)ccc1[n+]2C.CCCCC1Cc2cc(O)ccc2-c2n1c1ccc(O)cc1[n+]2C (stereo not given) | 4.82 µM (inactive) | 1.1 µM (active) | 24.4 µM (inactive) | 28.3 µM (inactive) | 49.1 µM (inactive) | 9.73 µM (inactive) | 27.7 µM (inactive) | 56.5 µM (inactive) | 19 µM (inactive) | 11.6 µM (inactive) | 19 µM (inactive) | 5.47 µM (inactive) | > 100 µM (inactive) | 25.9 µM (inactive) | 32.7 µM (inactive) | 49.5 µM (inactive) | 57.3 µM (inactive) | 22.9 µM (inactive) | 26.8 µM (inactive) | 0.476 µM (active)
6 | CCN(CC)CCn1c2ccccc2c(=O)c2c(O)ccc(O)c21 | 22.5 µM (inactive) | 42.1 µM (inactive) | 3.48 µM (inactive) | 19.6 µM (inactive) | 18.5 µM (inactive) | 19.9 µM (inactive) | 17.3 µM (inactive) | 12.4 µM (inactive) | 18.8 µM (inactive) | 36.9 µM (inactive) | 22.5 µM (inactive) | 22.1 µM (inactive) | 19.6 µM (inactive) | 38.5 µM (inactive) | 33.4 µM (inactive) | 24.5 µM (inactive) | 69.8 µM (inactive) | 83.9 µM (inactive) | 18.7 µM (inactive) | > 46.5 µM (inactive)
7 | FC(F)(F)c1ccc(C2ON=C(c3ccccc3)N2C23CC4CC(CC(C4)C2)C3)cc1 (stereo not given) | > 10 µM (inactive) | > 10 µM (inactive) | > 10 µM (inactive) | > 10 µM (inactive) | > 10 µM (inactive) | > 10 µM (inactive) | > 10 µM (inactive) | > 10 µM (inactive) | 1.39 µM (inactive) | > 10 µM (inactive) | > 10 µM (inactive) | > 10 µM (inactive) | > 10 µM (inactive) | > 10 µM (inactive) | > 10 µM (inactive) | > 10 µM (inactive) | > 10 µM (inactive) | > 10 µM (inactive) | > 10 µM (inactive) | > 10 µM (inactive)
